{"source": "paper PMC5650142", "about": "“GPR40 partial agonists and AgoPAMs: Differentiating effects on glucose and hormonal secretions in the rodent” (PLoS ONE, 2017)", "key": {"human GPR40 [1]": {"molecular_target": "T1, human GPR40 (Homo sapiens, UniProt O14842)", "T1 sequence (O14842 whole entry)": "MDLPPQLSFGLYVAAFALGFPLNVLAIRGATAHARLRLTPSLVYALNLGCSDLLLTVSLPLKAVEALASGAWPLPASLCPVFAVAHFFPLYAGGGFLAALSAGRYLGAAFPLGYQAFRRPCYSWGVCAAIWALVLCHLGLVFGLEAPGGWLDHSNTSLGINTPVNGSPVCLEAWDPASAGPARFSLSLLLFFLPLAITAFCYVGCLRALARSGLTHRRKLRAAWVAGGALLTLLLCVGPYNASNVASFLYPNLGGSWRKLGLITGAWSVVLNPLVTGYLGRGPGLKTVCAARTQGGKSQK", "assay": "Human GPR40 IP1 accumulation assay", "format": "cell-based", "design": "expressed in transfected cells", "outline": "(§1)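 IP1 accumulation is measured by HTRF after 60 min compound stimulation at room temperature in LiCl (50 mM)-containing buffer. Compounds run in ½-log dilutions from a final top concentration of 10 μM or 1 μM. Cells are hGPR40/HEK293, mGPR40/CHO-K1 and rGPR40/CHO-K1. Activity is scaled between DMSO and a partial allosteric agonist and fitted to a 4-parameter curve for EC50 and maximum.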"}, "human GPR40 [2]": {"molecular_target": "T1, human GPR40", "assay": "GPR40 binding assay, partial agonist tracer [3H]L358", "design": "expressed in transfected cells; host or cells: CHO / CHO-K1 cells, membrane preparation", "conditions": "radioligand L-001533358", "outline": "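Affinity at two allosterically coupled GPR40 sites was probed by displacement or enhancement of radiotracer: the partial agonist [3H]L358 and the AgoPAM [3H]25. Human GPR40 CHO-cell membranes (5 μg/well) on WGA SPA beads were incubated with compound and tracer at room temperature, then counted. Outputs: IC50 and maximal % bound.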"}, "mouse GPR40": {"molecular_target": "T2, mouse GPR40 (Mus musculus, UniProt Q76JU9)", "T2 construct": "expressed in transfected cells; host or cells: CHO-K1 (methods)", "T2 sequence (Q76JU9 whole entry)": "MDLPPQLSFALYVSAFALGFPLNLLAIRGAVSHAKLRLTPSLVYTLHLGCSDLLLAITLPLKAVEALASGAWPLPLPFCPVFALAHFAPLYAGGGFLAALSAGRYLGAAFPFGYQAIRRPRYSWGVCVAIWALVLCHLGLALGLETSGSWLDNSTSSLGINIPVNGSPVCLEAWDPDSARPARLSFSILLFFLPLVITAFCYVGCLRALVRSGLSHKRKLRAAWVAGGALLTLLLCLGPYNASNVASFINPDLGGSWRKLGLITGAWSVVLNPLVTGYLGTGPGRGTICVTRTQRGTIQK", "assay": "Mouse GPR40 IP1 accumulation assay", "format": "cell-based", "outline": "as §1"}, "rat GPR40": {"molecular_target": "T3, rat GPR40 (Rattus norvegicus, UniProt Q8K3T4)", "T3 construct": "expressed in transfected cells; host or cells: CHO-K1 (methods)", "T3 sequence (Q8K3T4 whole entry)": "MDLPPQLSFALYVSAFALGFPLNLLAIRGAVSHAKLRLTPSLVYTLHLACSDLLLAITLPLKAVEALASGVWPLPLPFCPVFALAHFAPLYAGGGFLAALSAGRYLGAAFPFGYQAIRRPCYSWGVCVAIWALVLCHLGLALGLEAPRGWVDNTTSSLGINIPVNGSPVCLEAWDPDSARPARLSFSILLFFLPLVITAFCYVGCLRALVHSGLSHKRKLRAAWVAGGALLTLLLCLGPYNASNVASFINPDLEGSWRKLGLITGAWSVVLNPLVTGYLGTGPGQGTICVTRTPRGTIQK", "assay": "Rat GPR40 IP1 accumulation assay", "format": "cell-based", "outline": "as §1"}, "[3]": {"conditions": "maximal % activity vs in-house partial agonist control"}}, "note": "“And” between values parts separate entries of the source, which are not always exact repeats. Equal entries are not always repeated. Where two headings read alike, the source gives them in different places.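 Throughout, for %Bound: 100% is tracer binding with DMSO alone and 0% is full displacement by a standard compound.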"}
{"smiles": "COc1ccc(F)c(-c2ccc(COc3cccc([C@@H](CC(=O)O)C4CC4)c3)cc2C2=CCCC2(C)C)c1", "note": "[AM-1638, reference compound]", "values": [{"measurement": "Human GPR40 Receptor Activation (%)", "setting": "human GPR40 [1]; dose 2.00E-06 M", "value": 237, "unit": "%"}, {"measurement": "Human GPR40 Receptor Activation (%)", "setting": "human GPR40 [1]; dose 2.00E-07 M", "value": 246, "unit": "%"}, {"measurement": "Human GPR40 Receptor Activation (%)", "setting": "human GPR40 [1]; dose 2.00E-08 M", "value": 186, "unit": "%"}, {"measurement": "Human GPR40 Receptor Activation (%)", "setting": "human GPR40 [1]; dose 2.00E-09 M", "value": 90, "unit": "%"}, {"measurement": "Human GPR40 Receptor Activation (%)", "setting": "human GPR40 [1]; dose 2.00E-10 M", "value": 5.57, "unit": "%"}, {"measurement": "Human GPR40 Receptor Activation (%)", "setting": "human GPR40 [1]; dose 6.00E-07 M", "value": 204, "unit": "%"}, {"measurement": "Human GPR40 Receptor Activation (%)", "setting": "human GPR40 [1]; dose 6.00E-08 M", "value": 223, "unit": "%"}, {"measurement": "Human GPR40 Receptor Activation (%)", "setting": "human GPR40 [1]; dose 6.00E-09 M", "value": 129, "unit": "%"}, {"measurement": "Human GPR40 Receptor Activation (%)", "setting": "human GPR40 [1]; dose 6.00E-10 M", "value": 27, "unit": "%"}, {"measurement": "Human GPR40 Receptor Activation (%)", "setting": "human GPR40 [1]; dose 6.00E-11 M", "value": -7, "unit": "%"}, {"measurement": "HUMAN GPR40 Functional Assay %Act", "setting": "human GPR40 [1]; individual replicates (n)", "value": "245% and 240% and 164% and 211% and 215% and 163%"}, {"measurement": "EC50", "setting": "human GPR40 [1]; individual replicates (n), read-out: HUMAN GPR40 Functional Assay EC50", "value": "3.7 nM and 4.2 nM and 7.3 nM and 1.3 nM and 2.4 nM and 3.6 nM"}, {"measurement": "Efficacy (% Activation), Human", "setting": "human GPR40 [1]; [3]", "value": "(200%)"}, {"measurement": "EC50", "setting": "human GPR40 [1]; mean ± SD, n = 2–20, IP accumulation, read-out: Potency [EC50, nM] ± SD, Human", "value": "3.7 ± 1.9", "unit": "nM"}, {"measurement": "% Bound Normalized to 100", "setting": "human GPR40 [2]; dose 0.318285 nM", "value": 102.20, "unit": "%"}, {"measurement": "%Bound", "setting": "human GPR40 [2]; dose 0.318285 nM", "value": 108.18, "unit": "%"}, {"measurement": "% Bound Normalized to 100", "setting": "human GPR40 [2]; dose 1.00578 nM", "value": 103.34, "unit": "%"}, {"measurement": "%Bound", "setting": "human GPR40 [2]; dose 1.00578 nM", "value": 109.31, "unit": "%"}, {"measurement": "% Bound Normalized to 100", "setting": "human GPR40 [2]; dose 3.17827 nM", "value": 130.10, "unit": "%"}, {"measurement": "%Bound", "setting": "human GPR40 [2]; dose 3.17827 nM", "value": 136.07, "unit": "%"}, {"measurement": "% Bound Normalized to 100", "setting": "human GPR40 [2]; dose 10.0433 nM", "value": 137.50, "unit": "%"}, {"measurement": "%Bound", "setting": "human GPR40 [2]; dose 10.0433 nM", "value": 143.47, "unit": "%"}, {"measurement": "% Bound Normalized to 100", "setting": "human GPR40 [2]; dose 31.7369 nM", "value": 182.19, "unit": "%"}, {"measurement": "%Bound", "setting": "human GPR40 [2]; dose 31.7369 nM", "value": 188.17, "unit": "%"}, {"measurement": "% Bound Normalized to 100", "setting": "human GPR40 [2]; dose 100.289 nM", "value": 189.31, "unit": "%"}, {"measurement": "%Bound", "setting": "human GPR40 [2]; dose 100.289 nM", "value": 195.29, "unit": "%"}, {"measurement": "% Bound Normalized to 100", "setting": "human GPR40 [2]; dose 316.912 nM", "value": 199.27, "unit": "%"}, {"measurement": "%Bound", "setting": "human GPR40 [2]; dose 316.912 nM", "value": 205.25, "unit": "%"}, {"measurement": "% Bound Normalized to 100", "setting": "human GPR40 [2]; dose 1001.44 nM", "value": 201.84, "unit": "%"}, {"measurement": "%Bound", "setting": "human GPR40 [2]; dose 1001.44 nM", "value": 207.81, "unit": "%"}, {"measurement": "% Bound Normalized to 100", "setting": "human GPR40 [2]; dose 3164.56 nM", "value": 204.40, "unit": "%"}, {"measurement": "%Bound", "setting": "human GPR40 [2]; dose 3164.56 nM", "value": 210.37, "unit": "%"}, {"measurement": "% Bound Normalized to 100", "setting": "human GPR40 [2]; dose 10000 nM", "value": 189.59, "unit": "%"}, {"measurement": "%Bound", "setting": "human GPR40 [2]; dose 10000 nM", "value": 195.57, "unit": "%"}, {"measurement": "Mouse GPR40 Receptor Activation (%)", "setting": "mouse GPR40; dose 1.00E-06 M", "value": 394, "unit": "%"}, {"measurement": "Mouse GPR40 Receptor Activation (%)", "setting": "mouse GPR40; dose 1.50E-11 M", "value": -7, "unit": "%"}, {"measurement": "Mouse GPR40 Receptor Activation (%)", "setting": "mouse GPR40; dose 1.56E-08 M", "value": 156, "unit": "%"}, {"measurement": "Mouse GPR40 Receptor Activation (%)", "setting": "mouse GPR40; dose 2.44E-10 M", "value": 2.81, "unit": "%"}, {"measurement": "Mouse GPR40 Receptor Activation (%)", "setting": "mouse GPR40; dose 2.50E-07 M", "value": 318, "unit": "%"}, {"measurement": "Mouse GPR40 Receptor Activation (%)", "setting": "mouse GPR40; dose 3.91E-09 M", "value": 67, "unit": "%"}, {"measurement": "Mouse GPR40 Receptor Activation (%)", "setting": "mouse GPR40; dose 4.00E-12 M", "value": -8.43, "unit": "%"}, {"measurement": "Mouse GPR40 Receptor Activation (%)", "setting": "mouse GPR40; dose 6.10E-11 M", "value": 3.63, "unit": "%"}, {"measurement": "Mouse GPR40 Receptor Activation (%)", "setting": "mouse GPR40; dose 6.25E-08 M", "value": 254, "unit": "%"}, {"measurement": "Mouse GPR40 Receptor Activation (%)", "setting": "mouse GPR40; dose 9.77E-10 M", "value": 19, "unit": "%"}, {"measurement": "Mouse GPR40 Functional Assay %Act", "setting": "mouse GPR40; individual replicates (n)", "value": "406% and 397%"}, {"measurement": "EC50", "setting": "mouse GPR40; individual replicates (n), read-out: Mouse GPR40 Functional Assay EC50", "value": "44 nM and 28 nM"}, {"measurement": "Efficacy (% Activation), Mouse", "setting": "mouse GPR40; [3]", "value": "(402%)"}, {"measurement": "EC50", "setting": "mouse GPR40; mean ± SD, n = 2–20, IP accumulation, read-out: Potency [EC50, nM] ± SD, Mouse", "value": "36 ± 11", "unit": "nM"}, {"measurement": "Rat GPR40 Receptor Activation (%)", "setting": "rat GPR40; dose 1.00E-06 M", "value": 370, "unit": "%"}, {"measurement": "Rat GPR40 Receptor Activation (%)", "setting": "rat GPR40; dose 1.50E-11 M", "value": -18, "unit": "%"}, {"measurement": "Rat GPR40 Receptor Activation (%)", "setting": "rat GPR40; dose 1.56E-08 M", "value": 132, "unit": "%"}, {"measurement": "Rat GPR40 Receptor Activation (%)", "setting": "rat GPR40; dose 2.44E-10 M", "value": 11, "unit": "%"}, {"measurement": "Rat GPR40 Receptor Activation (%)", "setting": "rat GPR40; dose 2.50E-07 M", "value": 361, "unit": "%"}, {"measurement": "Rat GPR40 Receptor Activation (%)", "setting": "rat GPR40; dose 3.91E-09 M", "value": 23, "unit": "%"}, {"measurement": "Rat GPR40 Receptor Activation (%)", "setting": "rat GPR40; dose 4.00E-12 M", "value": -6, "unit": "%"}, {"measurement": "Rat GPR40 Receptor Activation (%)", "setting": "rat GPR40; dose 6.10E-11 M", "value": 2, "unit": "%"}, {"measurement": "Rat GPR40 Receptor Activation (%)", "setting": "rat GPR40; dose 6.25E-08 M", "value": 275, "unit": "%"}, {"measurement": "Rat GPR40 Receptor Activation (%)", "setting": "rat GPR40; dose 9.77E-10 M", "value": 18, "unit": "%"}, {"measurement": "Rat GPR40 Functional Assay %Act", "setting": "rat GPR40; individual replicates (n)", "value": "380% and 366%"}, {"measurement": "EC50", "setting": "rat GPR40; individual replicates (n), read-out: Rat GPR40 Functional Assay EC50", "value": "26 nM and 56 nM"}, {"measurement": "Efficacy (% Activation), Rat", "setting": "rat GPR40; [3]", "value": "(373%)"}, {"measurement": "EC50", "setting": "rat GPR40; mean ± SD, n = 2–20, IP accumulation, read-out: Potency [EC50, nM] ± SD, Rat", "value": "41 ± 21", "unit": "nM"}]}
